Several values for one entry are separate records, joined by “and”; a condition that tells them apart may be missing. Equal values may be shown once. Read-outs that look alike come from different tables or passages of the source.
Legend:
[1] = rat
Protocol: (§1) In short, lung slices were prepared by performing an in situ perfusion of the lungs of the rats with physiological saline and then filling them with agarose Type VII-A to facilitate slicing. Slices of 500 µm thickness were prepared using the Leica VT1200 microtome slicer (Leica Microsystems, Wetzlar, Germany). […] After a 5 h incubation at 37 °C in an incubated shaker (MaxQ4450 Thermo Fisher Scientific, NinoLab, Stockholm, Sweden) with a rotation speed of 45 rpm, the buffer and lung slices were sampled. To match the matrix of the lung slice samples, 200 μL of aECF was mixed with 200 μL of blank agarose-filled lung homogenate (1:4, w:v). The lung slices were individually removed, dried on filter paper, weighed, and thereafter homogenized in 9 volumes (w:v) of aECF with an ultrasonic processor (VCX-130; Sonics, Chemical Instruments AB, Stockholm, Sweden). All samples were stored at −20 °C pending LC-MS/MS analysis. Assuming that at equilibrium the concentration of the peptide in virtually protein-free buffer is equal to the interstitial fluid concentration in the lung slice, the Vu,lung (mL/g lung) was estimated using Equation (4) as a ratio of the amount of compound in the lung slice (Alung, nanomoles g lung) to the measured final buffer concentration (Cbuffer, micromole/L). […]

[2] = system: lung slices; details: rat lung slices, 200 nM, 5 h, 37 °C
Protocol: as §1

[3] = rat, tissue homogenate
[4] = system: astrocytes differentiated from human neural stem cells; details: 500 nM, 5 h, 37 °C
Protocol: (§2) Human neural stem cells (hNSCs) derived from human embryonic stem cells (hESCs) were differentiated to neurons or astrocytes. […] Cells were allowed to differentiate into desired lineage for three weeks before the addition of peptides. The peptides were individually added to 2 mL Neurobasal medium to a final concentration of 500 nM and incubated at 37 °C for 5 h. The medium was removed, and the cells were subsequently lysed using 300 µL of Pierce™ lysis buffer (ThermoFisher Scientific Cat. No. 87787) per well. Samples were kept at −20 °C pending analysis. The uptake of peptides was determined using the total cellular-to-unbound medium concentrations ratio, Kp,u,cell (mL/g total protein), according to Equation (11). (11) Kp,u,cell=Ccell/Cu,medium=Acell/Vcell/Cu,medium where Acell (nanomoles per g total protein) is the total amount of peptide in the cell lysate normalized by the total protein content and estimated volume of the cells. Total protein concentration (mg/mL) in the cell lysate was determined using a NanoDrop 2000C (ThermoFisher, Waltham, MA, USA) by measuring the absorbance at 280 nm. Vcell was estimated using the value of 6.5 µL/mg protein by analogy of HEK293 cells. […] The parameter Kp,u,cell (mL per g of total protein at 5 h) is a partition coefficient between the buffer and the cell culture, where the fraction in the buffer has no binding, but the measured concentration in the cells is a composite of both uptake into the cells and binding to both the cell surface and intra-cellular components. This parameter is thereby similar to Vu,brain as it also gives a description of both binding and uptake processes.
(§3) For estimation of the extent of transport across the cellular membrane, the unbound intracellular-to-extracellular ratio, Kp,uu,cell was calculated as described below:(12) Kp,uu,cell=Kp,u,cell×fu,cell

[5] = system: neurons differentiated from human neural stem cells; details: for Total neuronal cell-to-unbound medium concentration ratio, Kp,u,cell,N: neurons, 500 nM, 5 h, 37 °C
Protocol: as §2, §3

[6] = rat, plasma, Fraction unbound in plasma, fu,plasma, undiluted rat plasma, 1 µM, equilibrium dialysis 6 h 37 °C
Protocol: (§4) Peptide binding to plasma proteins, brain tissue homogenate, and lung tissue homogenate as well as to neuronal and astrocyte cell culture homogenates was investigated using equilibrium dialysis [47]. Undiluted plasma and brain from three peptide-naïve rats were used in the experiment. The brain homogenate was prepared by homogenizing 1 part brain with 4 parts of phosphate-buffered saline (PBS, pH 7.4). […] Semi-permeable membranes with a molecular weight cut-off of 12–14 kDa were used and placed in an HTD96b apparatus (HTDialysis, Gales Ferry, CT, USA). The undiluted plasma and respective homogenates were spiked with individual peptide to a concentration of 1 µM and were dialyzed against PBS (pH 7.4). Five technical replicates were prepared per biological replicate. The experiment was run for 6 h at 37 °C in a MaxQ4450 shaker (Thermo Fisher Scientific, NinoLab, Sweden) at 200 rpm. […] Aliquots (80 µL) were taken from the buffer and plasma/homogenate sides. To compensate for any differences in matrix during bioanalysis, the plasma and homogenate samples were mixed with equal volumes of blank buffer, and the buffer samples were mixed with an equal volume of relevant blank plasma/homogenate. Spiked plasma and respective homogenate samples were incubated to control for relative recovery and thermal stability of the peptides in respective matrices.
(§5) The unbound fraction in undiluted plasma was calculated using Equation (5), where Cbuffer is the unbound concentration of peptide in the buffer and Cplasma is the total concentration of peptide in plasma at 6 h. The binding of peptide in various homogenates was assessed in two steps. First, the fraction of unbound peptide in the diluted homogenate, fu,h,D, was calculated using Equation (6), where Chomogenate is the total concentration of peptide in respective homogenate at 6 h. Second, the correction for the dilution was implemented as described in Equation (7), where D is the dilution factor used in the preparation [47]. D was 5 for brain and lung homogenates and on average 35.3 for the cell culture studies, as determined based on the total protein content and the total volume of lysate. (5) fu,plasma=Cbuffer/Cplasma (6) fu,h,D=Cbuffer/Chomogenate (7) fu,tissue/cell=1/D/((1/fu,h,D )−1)+1/D

[7] = cell lysates vs brain homogenate, on average
[8] = set-up: method as in PubChem; details: estimates from PubChem; ref PubChem; cited from earlier work
[9] = in vitro; details: rat, undiluted plasma, pH 7.4, Fraction unbound in plasma, fu,plasma, equilibrium dialysis 6 h 37 °C
Protocol: as §4, §5

SMILES | Kp uu [1] | Vu,lung [2] [mL/g lung] | fraction unbound [3] | Total astrocyte cell-to-unbound medium concentration ratio, Kp,u,cell,A [4] | Total astrocyte cell-to-unbound medium concentration ratio, Kp,u,cell,A ([4]; listed as kalata B1) [mL/g total protein] | Relative reduction of Kp,uu,cell in cell culture versus tissue slice experiments ([5]; neuron and astrocyte cultures vs brain slices) | Difference between Kp,u,cell (neurons, astrocytes) and Vu,brain (brain slice assay) ([5]; neurons and astrocytes vs brain slices) | Total neuronal cell-to-unbound medium concentration ratio, Kp,u,cell,N [5] [mL/g total protein] | fraction unbound [6] | fu,cell fold lower than fu,brain [7] [fold] | Kp,u,cell fold lower than for kalata B1 ([5]; neurons and astrocytes) | Predicted net charge [8] | fraction unbound at 6 h, 1 µM [9]
CC(C)C[C@@H]1NC(=O)CNC(=O)[C@H](CC(N)=O)NC(=O)[C@H](CCCNC(=N)N)NC(=O)[C@H]([C@@H](C)O)NC(=O)[C@@H]2CSSC[C@@H]3NC(=O)[C@H]([C@@H](C)O)NC(=O)CNC(=O)CNC(=O)[C@H](C(C)C)NC(=O)[C@@H]4CSSC[C@H](NC(=O)[C@H]([C@@H](C)O)NC(=O)[C@H](CSSC[C@H](NC(=O)[C@H](C(C)C)NC(=O)[C@@H]5CCCN5C1=O)C(=O)NCC(=O)N[C@@H](CCC(=O)O)C(=O)N[C@@H]([C@@H](C)O)C(=O)N4)NC(=O)CNC(=O)[C@@H]1CCCN1C(=O)[C@H]([C@@H](C)O)NC(=O)[C@H](CC(N)=O)NC3=O)C(=O)N[C@@H](CO)C(=O)N[C@@H](Cc1c[nH]c3ccccc13)C(=O)N1CCC[C@H]1C(=O)N[C@@H](C(C)C)C(=O)N2 [Kalata B1] | 0.195 ± 0.107 | 1.23 | 0.0377 ± 0.0079 | 94.73 ± 3.08 mL/g total protein | 94.7 | ca. 3 fold | less than 2 fold | 135.35 ± 21.2 | 0.3 | – | – | – | –
CC[C@H](C)[C@@H]1NC(=O)[C@@H]2CCCN2C(=O)[C@@H]2CCCN2C(=O)[C@H]([C@@H](C)CC)NC(=O)[C@H](CO)NC(=O)[C@H](CCCCN)NC(=O)[C@H]([C@@H](C)O)NC(=O)[C@@H]2CSSC[C@H](NC1=O)C(=O)N[C@@H](Cc1ccccc1)C(=O)N1CCC[C@H]1C(=O)N[C@@H](CC(=O)O)C(=O)NCC(=O)N[C@@H](CCCNC(=N)N)C(=O)N2 [SFTI-1, sunflower trypsin inhibitor-1] | – | – | – | 19.0 mL/g total protein and 19.02 ± 4.34 mL/g total protein | – | – | – | 31.11 ± 12.46 | – | 3 | up to 5 fold | 0 | 0.94
